Laboratory results: publication PMC10993414, “Water Quality Monitoring with the Multiplexed Assay MitoOxTox for Mitochondrial Toxicity, Oxidative Stress Response, and Cytotoxicity in AREc32 Cells” (Environmental Science & Technology, 2024)
Read-outs that look alike come from different tables or passages of the source.

Tests used:
[1] = tested on: Nrf2-mediated oxidative stress response pathway (ARE) in AREc32 cells; test: cells; conditions: Arec32, 24 h, read-out: Oxidative stress response ECIR1.5 (M)
[2] = tested on: Nrf2-mediated oxidative stress response pathway (ARE) in AREc32 cells; conditions: for activation of the oxidative stress response (in words): AREc32; for Oxidative stress response ECIR1.5: effect concentration leading to induction ratio 1.5, AREc32, 24 h exposure
[3] = tested on: mitochondrial membrane potential (MMP) in AREc32 cells; test: Disruption of mitochondrial membrane potential (m-MPI red/green ratio), MitoOxTox; conditions: for EC10: MMP, AREc32, 24 h; for MMP inhibition activity (in words): MitoOxTox, AREc32
[4] = tested on: mitochondrial membrane potential (MMP) in AREc32 cells
AREc32 cells [5] = tested on: AREc32 cells
AREc32 cells [6] = tested on: AREc32 cells; remark: listed apart in the source
[7] = cited from earlier work
AREc32 cells [8] = test: Cytotoxicity (cell confluency) with IncuCyte S3 live cell imaging, MitoOxTox; conditions: AREc32, 24 h exposure; for Cytotoxicity Incucyte IC10: 10% reduction in cell viability
AREc32 cells [9] = test: Cytotoxicity with ImageXpress high-content imaging, MitoOxTox; conditions: AREc32, 24 h exposure; for Cytotoxicity ImageExpress IC10: 10% reduction in cell viability; for Cytotoxicity ImageExpress log(IC10 (M)): logarithm of IC10, Corning plates
[10] = tested on: mitochondrial membrane potential (MMP) in HepG2 cells; conditions: Tox21 MMP assay, HepG2; cited from earlier work
[11] = 10% reduction of MMP, AREc32, 24 h exposure
[12] = logarithm of EC10, AREc32, 24 h exposure

For O=[N+]([O-])c1ccc(O)c([N+](=O)[O-])c1 [2,4-Dinitrophenol], the EC (induction ratio 1.5) [1] was 0.000156 M, the “activation of the oxidative stress response (in words)” value [2] was “activated” and the “MMP inhibition EC10” value [3, 11] was 12.1 µM. For the same compound, the “MMP inhibition log(EC10 (M))” value [3, 12] was -4.92 M, the SRcytotoxicity ([4]; human) was 35.1 and the “Cytotoxicity Incucyte IC10” value (AREc32 cells [5]; human) was 281 µM. The “Cytotoxicity ImageExpress IC10” value (AREc32 cells [6]; human) was 426 µM, the “Cytotoxicity ImageExpress log(IC10 (M))” value (AREc32 cells [6]; human) was -3.37 M and the “log Kow [L/L]” value ([7]; experimental, ref PhysPropNCCT) was 1.67 L/L.

In the case of CCCCOCCO [2-Butoxyethanol], the EC10 [3] is listed as 10700 µM, the “MMP inhibition log(EC10 (M))” value [4, 12] is listed as -1.97 M and the “log Kow [L/L]” value ([7]; ref Vaes et al. 1997b) is listed as 0.83 L/L.

In the case of CO/C=C(/C(=O)OC)c1ccccc1Oc1cc(Oc2ccccc2C#N)ncn1 [Azoxystrobin], the “Cytotoxicity Incucyte IC10” value (AREc32 cells [8]) is reported as over 105 µM, the “Cytotoxicity Incucyte log(IC10 (M))” value (AREc32 cells [8]; logarithm of IC10, Corning plates) is reported as “no cytotoxicity” and the “Oxidative stress response ECIR1.5” value [2] is reported as over 105 µM. For the same compound, the “MMP inhibition EC10” value [3, 11] was 15.9 µM, the “MMP inhibition log(EC10 (M))” value [3, 12] was -4.80 M and the “Cytotoxicity ImageExpress IC10” value (AREc32 cells [9]) was over 105 µM. For the same compound, the “Cytotoxicity ImageExpress log(IC10 (M))” value (AREc32 cells [9]) was “no cytotoxicity” and the “log Kow [L/L]” value ([7]; experimental, ref PhysPropNCCT) was 2.50 L/L.

With O=C(Nc1ccccc1-c1ccc(Cl)cc1)c1cccnc1Cl [Boscalid] the EC (induction ratio 1.5) [1] was over 8.32e-05 M, the “MMP inhibition EC10” value [3, 11] was over 83.2 µM and the “MMP inhibition EC10 (M)” value ([3]; 10% reduction of MMP, AREc32, 24 h exposure, listed as boscalid) was > 8.32 × 10^–5 M. The “MMP inhibition activity (in words)” value [3] was “inactive”, the “MMP inhibition log(EC10 (M))” value [3, 12] was “no Effect” and the “MMP inhibition activity (in words)” value [10] was “inactive”. The “Cytotoxicity Incucyte log(IC10 (M))” value (AREc32 cells [5]) was “no cytotoxicity”, the “Cytotoxicity Incucyte IC10” value (AREc32 cells [5]; human, 24 h) was over 83.2 µM and the “Cytotoxicity ImageExpress log(IC10 (M))” value (AREc32 cells [6]) was “no cytotoxicity”. For the same compound, the “Cytotoxicity ImageExpress IC10” value (AREc32 cells [6]; human, 24 h) was over 83.2 µM and the “log Kow [L/L]” value ([7]; experimental, ref PhysPropNCCT) was 2.96 L/L.

In the case of CC1=C(C(=O)Nc2ccccc2)SCCO1 [Carboxin], the EC (induction ratio 1.5) [1] is reported as 0.00014 M, the “activation of the oxidative stress response (in words)” value [2] is reported as “activated” and the “MMP inhibition EC10” value [3, 11] is reported as 152 µM. The EC10 [3] was 152 µM, the “MMP inhibition log(EC10 (M))” value [3, 12] was -3.82 M and the “Cytotoxicity Incucyte IC10” value (AREc32 cells [5]; human, 24 h) was 1080 µM. The “Cytotoxicity ImageExpress log(IC10 (M))” value (AREc32 cells [6]) was “no cytotoxicity”, the “Cytotoxicity ImageExpress IC10” value (AREc32 cells [6]; human, 24 h) was over 429 µM and the “log Kow [L/L]” value ([7]; experimental, ref PhysPropNCCT) was 2.14 L/L.

With Cc1ccc(-c2c(Cl)nc(C#N)n2S(=O)(=O)N(C)C)cc1 [Cyazofamid] the EC (induction ratio 1.5) [1] was over 5.41e-05 M, the “MMP inhibition EC10” value [3, 11] was 36.7 µM and the “MMP inhibition log(EC10 (M))” value [3, 12] was -4.44 M. For the same compound, the “Cytotoxicity Incucyte log(IC10 (M))” value (AREc32 cells [5]) was “no cytotoxicity”, the “Cytotoxicity Incucyte IC10” value (AREc32 cells [5]; human, 24 h) was over 54.1 µM and the “Cytotoxicity ImageExpress log(IC10 (M))” value (AREc32 cells [6]) was “no cytotoxicity”. The “Cytotoxicity ImageExpress IC10” value (AREc32 cells [6]; human, 24 h) was over 54.1 µM.

In the case of COc1cc2c(cc1OC)[C@@H]1C(=O)c3ccc4c(c3O[C@@H]1CO2)C=CC(C)(C)O4 [Deguelin], the “Cytotoxicity Incucyte IC10” value (AREc32 cells [8]) is reported as 17.7 µM, the EC (induction ratio 1.5) [1] is reported as over 4.08e-05 M and the “MMP inhibition EC10” value [3, 11] is reported as 0.013 µM. For the same compound, the “MMP inhibition log(EC10 (M))” value [3, 12] was -7.89 M, the SRcytotoxicity ([4]; human) was 2215 and the “Cytotoxicity ImageExpress IC10” value (AREc32 cells [9]) was 28.8 µM. The “Cytotoxicity ImageExpress log(IC10 (M))” value (AREc32 cells [9]) was -4.54 M.

With CNC(=O)/C(=N/OC)c1ccccc1COc1cc(C)ccc1C [Dimoxystrobin] the “Oxidative stress response ECIR1.5” value [2] was over 206 µM, the “MMP inhibition EC10” value [3, 11] was 0.439 µM and the “MMP inhibition log(EC10 (M))” value [3, 12] was -6.36 M. For the same compound, the SRcytotoxicity [4] was 324, the “Cytotoxicity Incucyte IC10” value (AREc32 cells [5]) was 129 µM and the “Cytotoxicity ImageExpress IC10” value (AREc32 cells [6]) was 142 µM. For the same compound, the “Cytotoxicity ImageExpress log(IC10 (M))” value (AREc32 cells [6]) was -3.85 M.

With CSC1=N[C@@](C)(c2ccccc2)C(=O)N1Nc1ccccc1 [Fenamidone] the EC (induction ratio 1.5) [1] was over 0.000239 M, the “MMP inhibition EC10” value [3, 11] was 13.1 µM and the “MMP inhibition log(EC10 (M))” value [3, 12] was -4.88 M. For the same compound, the SRcytotoxicity ([4]; human, 24 h) was 9.5, the “Cytotoxicity Incucyte IC10” value (AREc32 cells [5]; human, 24 h) was 118 µM and the “Cytotoxicity ImageExpress IC10” value (AREc32 cells [6]; human, 24 h) was 125 µM. The “Cytotoxicity ImageExpress log(IC10 (M))” value (AREc32 cells [6]; human, 24 h) was -3.90 M.

With CC(C)(C)c1ccc(CCOc2ncnc3ccccc23)cc1 [Fenazaquin] the “Cytotoxicity Incucyte IC10” value (AREc32 cells [8]) was 100 µM, the EC (induction ratio 1.5) [1] was over 0.000314 M and the “MMP inhibition EC10” value [3, 11] was 0.0118 µM. The “MMP inhibition activity (in words)” value [3] was “active”, the “MMP inhibition log(EC10 (M))” value [3, 12] was -7.93 M and the SRcytotoxicity ([4]; human) was 9356. For the same compound, the “MMP inhibition activity (in words)” value [10] was “only active in the MitoOxTox assay”, the “Cytotoxicity ImageExpress IC10” value (AREc32 cells [9]) was 110 µM and the “Cytotoxicity ImageExpress log(IC10 (M))” value (AREc32 cells [9]) was -3.96 M. The “log Kow [L/L]” value ([7]; experimental, ref PhysPropNCCT) was 5.51 L/L.

With CC(C)Oc1cccc(NC(=O)c2ccccc2C(F)(F)F)c1 [Flutolanil] the EC (induction ratio 1.5) [1] was over 0.000226 M, the “MMP inhibition EC10” value [3, 11] was 25.2 µM and the “MMP inhibition log(EC10 (M))” value [3, 12] was -4.60 M. The SRcytotoxicity ([4]; human) was 5.5, the “Cytotoxicity Incucyte IC10” value (AREc32 cells [5]; human) was 106 µM and the “Cytotoxicity ImageExpress IC10” value (AREc32 cells [6]; human) was 138 µM. For the same compound, the “Cytotoxicity ImageExpress log(IC10 (M))” value (AREc32 cells [6]; human) was -3.86 M and the “log Kow [L/L]” value ([7]; experimental, ref PhysPropNCCT) was 3.7 L/L.

In the case of Oc1c(Cl)cc(Cl)c(Cl)c1Cc1c(O)c(Cl)cc(Cl)c1Cl [Hexachlorophene], the EC (induction ratio 1.5) [1] is reported as over 9.31e-05 M, the “MMP inhibition EC10” value [3] is reported as 0.276 µM and the “MMP inhibition log(EC10 (M))” value [3] is reported as -6.56 M. The SRcytotoxicity ([4]; human) was 38.6, the “Cytotoxicity Incucyte IC10” value (AREc32 cells [5]; human) was 5.46 µM and the “Cytotoxicity ImageExpress IC10” value (AREc32 cells [6]; human) was 10.7 µM. The “Cytotoxicity ImageExpress log(IC10 (M))” value (AREc32 cells [6]; human) was -4.97 M.
